Data published in patent US10947252B2, “Inhibitors of KEAP1-Nrf2 protein-protein interaction” (Janssen Pharmaceutica NV, priority 2018, dated 2021).

Assays:
[1] = molecular target: Kelch domain of human KEAP1 (321-624 aa) (Homo sapiens (Human), UniProt Q14145); assay: KEAP1 KELCH ThermoFluor binding assay; settings: KEAP Kelch […], 1,8-ANS, pH 7.0, average of results obtained, read-out: Tf Kd;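 further: Ligand-induced melting temperature shift of E. coli-expressed KEAP1 Kelch protein, Kd estimated from concentration-response curves of ΔTm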
Kelch domain of human KEAP1 (321-624 aa), sequence (Q14145 321-624): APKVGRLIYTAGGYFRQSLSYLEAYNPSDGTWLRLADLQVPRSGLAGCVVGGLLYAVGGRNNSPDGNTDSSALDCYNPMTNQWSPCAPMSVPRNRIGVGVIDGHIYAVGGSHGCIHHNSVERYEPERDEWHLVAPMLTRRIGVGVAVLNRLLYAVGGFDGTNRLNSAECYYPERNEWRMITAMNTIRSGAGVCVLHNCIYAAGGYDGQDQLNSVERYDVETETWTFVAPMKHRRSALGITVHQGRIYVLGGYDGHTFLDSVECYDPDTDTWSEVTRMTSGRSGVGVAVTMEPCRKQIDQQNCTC

[2] = test system: Glo-Response ARE-luc2P HEK293 cell line; assay: ARE luciferase reporter cell-based assay; settings: Homo sapiens, HEK293, 24 h, average of results obtained;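 further: luciferase signal tracks Nrf2 activation of the ARE once compounds disrupt KEAP1-Nrf2 binding, read with One-Glo reagent, DMSO serving as low control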

SMILES	Kd [1] [nM]	EC50 [2] [nM]
Cc1ccc(C(CC(=O)O)c2ccn3c(C(F)F)nnc3c2C)cc1CN1CC2(CCOCC2)Oc2ccc(F)cc2S1(=O)=O (centres unmarked) [Example 523, 3-(3-(Difluoromethyl)-8-methyl-[1,2,4]triazolo[4,3-a]pyridin-7-yl)-3-(3-((8-fluoro-1,1-dioxido-2′,3′,5′,6′-tetrahydrospiro[benzo[b][1,4,5]oxathiazepine-4,4′-pyran]-2(3H)-yl)methyl)-4-methylphenyl)propanoic Acid]	< 1	23.9
Cc1cnc2c(c1)S(=O)(=O)N(Cc1nc([C@H](c3ccn4c(C(F)(F)F)nnc4c3C)C(C)(C)C(=O)O)ccc1C)CC1(CNC1)O2 (single isomer, unassigned) [Example 629, (*R)-2,2-Dimethyl-3-(8-methyl-3-(trifluoromethyl)-[1,2,4]triazolo[4,3-a]pyridin-7-yl)-3-(5-methyl-6-((8′-methyl-1′,1′-dioxidospiro[azetidine-3,4′-pyrido[2,3-b][1,4,5]oxathiazepin]-2′(3′H)-yl)methyl)pyridin-2-yl)propanoic Acid]	131000	> 20000
Cc1cnc2c(c1)S(=O)(=O)N(Cc1cc([C@@H](c3ccn4c(C(F)(F)F)nnc4c3C)C(C)(C)C(=O)O)ccc1C)CC1(CCNCC1)O2 (single isomer, unassigned) [Example 340, (*S)-2,2-Dimethyl-3-(4-methyl-3-((8′-methyl-1′,1′-dioxidospiro[piperidine-4,4′-pyrido[2,3-b][1,4,5]oxathiazepin]-2′(3′H)-yl)methyl)phenyl)-3-(8-methyl-3-(trifluoromethyl)-[1,2,4]triazolo[4,3-a]pyridin-7-yl)propanoic Acid]	1.24	629
CCn1nnc2c(C)c(C(CC(=O)O)c3ccc(C)c(CN4C[C@@H]5CCCCN5c5ncccc5S4(=O)=O)n3)ccc21 (stereo in doubt) [Example 301, 3-(6-(((*S)-5,5-Dioxido-7,7a,8,9,10,11-hexahydro-6H-dipyrido[2,1-d:2′,3′-][1,2,5]thiadiazepin-6-yl)methyl)-5-methylpyridin-2-yl)-3-(1-ethyl-4-methyl-1H-benzo[d][1,2,3]triazol-5-yl)propanoic Acid]	< 1	4.7
Cc1ccc([C@@H](CC(=O)O)c2ccn3c(C(F)F)nnc3c2C)cc1CN1C[C@@H]2CCCCN2c2ncccc2S1(=O)=O (single isomer, unassigned) [Example 448, (*R)-3-(3-(Difluoromethyl)-8-methyl-[1,2,4]triazolo[4,3-a]pyridin-7-yl)-3-(3-(((*S)-5,5-dioxido-7,7a,8,9,10,11-hexahydro-6H-dipyrido[2,1-d:2′,3′-f][1,2,5]thiadiazepin-6-yl)methyl)-4-methylphenyl)propanoic Acid]	< 1	218
CCc1nnc2c(C)c(C(CC(=O)O)c3ccc(C)c(CN4C[C@H]5CCCN5c5ccccc5S4(=O)=O)c3)ccn12 (stereo partly drawn) [Example 278, 3-(3-(((R)-5,5-Dioxido-7a,8,9,10-tetrahydrobenzo[f]pyrrolo[2,1-d][1,2,5]thiadiazepin-6(7H)-yl)methyl)-4-methylphenyl)-3-(3-ethyl-8-methyl-[1,2,4]triazolo[4,3-a]pyridin-7-yl)propanoic Acid]	< 1	467
Cc1ccc(C(c2ccn3c(C(F)(F)F)nnc3c2C)C(C)(C)C(=O)O)cc1CN1CC2(CCOCC2)Oc2nc(N[C@H](C)CCO)ccc2S1(=O)=O (some centres unmarked) [Example 117]	< 1	425
Cc1cnc([C@@H](c2ccn3c(C(F)F)nnc3c2C)C(C)(C)C(=O)O)cc1CN1CC2(CC2)Oc2nc(OCCN3CCCC3)c(C)cc2S1(=O)=O (single isomer, unassigned) [Example 636, (*S)-3-(3-(Difluoromethyl)-8-methyl-[1,2,4]triazolo[4,3-a]pyridin-7-yl)-2,2-dimethyl-3-(5-methyl-4-((8′-methyl-1′,1′-dioxido-7′-(2-(pyrrolidin-1-yl)ethoxy)spiro[cyclopropane-1,4′-pyrido[2,3-b][1,4,5]oxathiazepin]-2′(3′H)-yl)methyl)pyridin-2-yl)propanoic Acid]	< 1	40.2
Cc1ccc([C@@H](CC(=O)O)c2cc(OC3CC3)c3c(c2)nnn3C)cc1CN1C[C@H]2CCCCN2c2ncccc2S1(=O)=O (single isomer, unassigned) [Example 404, (*R)-3-(7-Cyclopropoxy-1-methyl-1H-benzo[d][1,2,3]triazol-5-yl)-3-(3-(((*R)-5,5-dioxido-7,7a,8,9,10,11-hexahydro-6H-dipyrido[2,1-d:2′,3′-f][1,2,5]thiadiazepin-6-yl)methyl)-4-methylphenyl)propanoic Acid]	< 1	19.6
Cc1ccc([C@@H](c2ccn3c(C(F)(F)F)nnc3c2C)C(C)(C)C(=O)O)cc1CN1CC2(CCOCC2)Oc2nc(O[C@H](C)CN3CCCCC3)c(C)cc2S1(=O)=O (single isomer, unassigned) [Example 601, (*S)-2,2-Dimethyl-3-(4-methyl-3-((8′-methyl-1′,1′-dioxido-7′-(((*R)-1-(piperidin-1-yl)propan-2-yl)oxy)-2,3,5,6-tetrahydrospiro[pyran-4,4′-pyrido[2,3-b][1,4,5]oxathiazepin]-2′,(3′H)-yl)methyl)phenyl)-3-(8-methyl-3-(trifluoromethyl)-[1,2,4]triazolo[4,3-a]pyridine-7-yl)propanoic Acid]	< 1	4.79
Cc1ccc([C@@H](CC(=O)O)c2ccn3c(C(F)(F)F)nnc3c2C)cc1CN1C[C@H]2CCC(F)(F)CN2c2ncccc2S1(=O)=O (single isomer, unassigned) [Example 456, (*R)-3-(3-(((*R)-10,10-Difluoro-5,5-dioxido-7,7a,8,9,10,11-hexahydro-6H-dipyrido[2,1-d:2′,3′-f][1,2,5]thiadiazepin-6-yl)methyl)-4-methylphenyl)-3-(8-methyl-3-(trifluoromethyl)-[1,2,4]triazolo[4,3-a]pyridin-7-yl)propanoic Acid]	< 1	414
Cc1ccc([C@H](c2ccn3c(C(F)(F)F)nnc3c2C)C(C)(C)C(=O)O)cc1CN1CC2(CCOCC2)Oc2nc(NC3CC(O)C3)c(C)cc2S1(=O)=O (stereo in doubt) [Example 125, (*R)-3-(3-((7′-(((1s,3S)-3-Hydroxycyclobutyl)amino)-8′-methyl-1′,1′-dioxido-2,3,5,6-tetrahydrospiro[pyran-4,4′-pyrido[2,3-b][1,4,5]oxathiazepin]-2′(3′H)-yl)methyl)-4-methylphenyl)-2,2-dimethyl-3-(8-methyl-3-(trifluoromethyl)-[1,2,4]triazolo[4,3-a]pyridine-7-yl)propanoic Acid]	< 1	140
CCc1c([C@@H](CC(=O)O)c2ccc(C)c(CN3C[C@H]4CCCCN4c4ncc(C)cc4S3(=O)=O)c2)ccn2c(C(F)(F)F)nnc12 (single isomer, unassigned) [Example 516, (*S)-3-(8-Ethyl-3-(trifluoromethyl)-[1,2,4]triazolo[4,3-a]pyridin-7-yl)-3-(4-methyl-3-(((*R)-3-methyl-5,5-dioxido-7,7a,8,9,10,11-hexahydro-6H-dipyrido[2,1-d:2′,3′-f][1,2,5]thiadiazepin-6-yl)methyl)phenyl)propanoic Acid]	< 1	11.1
Cc1ccc(C(CC(=O)O)c2ccn3c(C(F)F)nnc3c2C)cc1CN1C[C@]2(C)CCCN2c2ncccc2S1(=O)=O (stereo in doubt) [Example 475, 3-(3-(Difluoromethyl)-8-methyl-[1,2,4]triazolo[4,3-a]pyridin-7-yl)-3-(4-methyl-3-(((*S)-7a-methyl-5,5-dioxido-7a,8,9,10-tetrahydropyrido[2,3-f]pyrrolo[2,1-d][1,2,5]thiadiazepin-6(7H)-yl)methyl)phenyl)propanoic Acid]	< 1	406
Cc1ccc([C@H](CC(=O)O)c2ccn3c(C)nnc3c2)cc1CN1C[C@H]2CCCN2c2ccccc2S1(=O)=O (single isomer, unassigned) [Example 165, (*S)-3-(3-(((R)-5,5-Dioxido-7a,8,9,10-tetrahydrobenzo[f]pyrrolo[2,1-d][1,2,5]thiadiazepin-6(7H)-yl)methyl)-4-methylphenyl)-3-(3-methyl-[1,2,4]triazolo[4,3-a]pyridin-7-yl)propanoic Acid]	< 1	1490
Cc1ccc(C(CC(=O)O)c2ccc3c(nnn3C3CC3)c2C)cc1CN1C[C@@H]2CCCCN2c2ncccc2S1(=O)=O (single isomer, unassigned) [Example 399, (*R)-3-(1-Cyclopropyl-4-methyl-1H-benzo[d][1,2,3]triazol-5-yl)-3-(3-(((*S)-5,5-dioxido-7,7a,8,9,10,11-hexahydro-6H-dipyrido[2,1-d:2′,3′-][1,2,5]thiadiazepin-6-yl)methyl)-4-methylphenyl)propanoic Acid]	< 1	92.9
Cc1ccc(C(CC(=O)O)c2ccn3c(C(F)F)nnc3c2C)cc1CN1C[C@@H]2COCCN2c2ncccc2S1(=O)=O (stereo in doubt) [Example 457, 3-(3-(Difluoromethyl)-8-methyl-[1,2,4]triazolo[4,3-a]pyridin-7-yl)-3-(3-(((*R)-5,5-dioxido-7a,8,10,11-tetrahydro-[1,4]oxazino[3,4-d]pyrido[2,3-f][1,2,5]thiadiazepin-6(7H)-yl)methyl)-4-methylphenyl)propanoic Acid]	1.02	479
Cc1ccc([C@@H](CC(=O)O)c2ccn3c(C(F)(F)F)nnc3c2C)cc1CN1C[C@H]2CN(C)CCN2c2ncccc2S1(=O)=O (single isomer, unassigned) [Example 182, (*R)-3-(4-Methyl-3-(((*R)-9-methyl-5,5-dioxido-7,7a,8,9,10,11-hexahydro-6H-pyrazino[2,1-d]pyrido[2,3-f][1,2,5]thiadiazepin-6-yl)methyl)phenyl)-3-(8-methyl-3-(trifluoromethyl)-[1,2,4]triazolo[4,3-a]pyridin-7-yl)propanoic Acid]	180	1390
Cc1ccc([C@H](c2ccn3c(C(F)(F)F)nnc3c2C)C(C)(C)C(=O)O)cc1CN1CC2(CCOCC2)Oc2nc(NCCN3CCNCC3)c(C)cc2S1(=O)=O (single isomer, unassigned) [Example 366]	< 1	407
